Data published in patent US8465778B2, “Method of making tyrosine kinase microspheres” (Allergan, Inc., priority 2004, dated 2013).
≈ marks a conversion by molar mass, not a printed value. Like-named read-outs stand apart in the source and are kept apart here. Values belong to the compound of their own block, whether it stands above or below them.

Assays:
in vivo = details: female, albino, rabbit
[1] = In vitro TKI release from PLGA/PLA implants (Example 2); type: physicochemical; details: for period of in-vitro release from implants: implants in release medium, 37° C.
Procedure: TKI release from the implants was assessed in vitro. Implants were placed into vials containing release medium and shaken at 37° C. At the appropriate time points a sample was taken from the release medium for analysis and the medium totally replaced to maintain sink conditions. Drug in the sample was assayed by HPLC and the cumulative percent release of drug from the implant noted as a function of time. The in vitro release profiles of AGN 200954, AGN 202314, AGN 201635 and AGN 202564 are depicted in FIGS. 3 through 10, respectively.

[2] = Physicochemical properties of the TKIs (solubility, log P, log D, pKa; Tables 2, 11, 13); details: for logP: n-octanol/water, Table 2; for solubility: pH 7, aqueous buffer
Procedure: Tyrosine kinase inhibitors were incorporated into PLGA or PLA implants by extrusion. The TKIs were milled with the polymers at certain ratios then extruded into filaments. These filaments were subsequently cut into implants weighing approximately 1 mg. Several TKIs were formulated in the PLGA and PLA implants based on their potencies and physicochemical properties as shown in Table 2.
We developed a new (oil in water) process for making active agent microspheres (FIG. 23). This new process for making microspheres can be used with any small molecule which is slightly soluble in water and organic solvents and which is able to preferentially crystallize in organic solvents. Such small molecules include those which have a Log P greater than or equal to four. P, the partition coefficient, is defined as the ratio of the equilibrium concentration (Ci) of a dissolved substance in a two-phase system consisting of two largely immiscible solvents, for example the ratio of n-octanol (Co) to water (Cw).
Using our new process, each of the five different TKIs shown by FIG. 24 were separately incorporated into PLGA biodegradable microspheres. In FIG. 24 the five TKIs shown are identified as follows: first (uppermost) row: 206639 and 205558; second (middle) row: 206320 and 206316, and; bottom row: 206784. The properties of these five TKIs are set forth in Table 13, where “DSC” means differential scanning calorimetry and endotherms are noted in degrees Celsius (used to determine presence of TKI crystals).

[3] = Intravitreal pharmacokinetics of TKIs in fluid compositions after a single intravitreal injection; details: female, albino, rabbit, vitreous humor, other: intravitreal injection
[4] = In vitro release of AGN 201634 from PDLG/PDL implants in different media; type: physicochemical
Procedure: TKI release was examined for implants made from poly (D,L-lactide-co-glycolide) (PDLG) or poly (D,L-lactide) (PDL) in different media with or without addition of detergent at 37° C. in a shaking water bath.
TKI release was examined in various medium, including saline, phosphate buffer saline of pH 7.4, 50 mM bicarbonate buffer of pH 6.0±0.1 with 0.1% cetyltrimethylammonium bromide (CTAB), and 50 mM borate buffer of pH 8.5±0.1 with 0.5% sodium dodecyl sulfate (SDS) in a shaking water bath (Precision) at 37° C. Sample was incubated in 10 mL of medium, and was totally replaced with fresh medium at each sampling time. Drug concentration was determined by HPLC using a Waters 2690 Separation Module equipped with a Waters XTerra RP8 column (3.9×150 mm, 5 μm, equilibrated at ambient) and a Waters 996 photodiode array detector (set at 238 nm) using 0.1% acetic acid in acetonitrile/water (40/60 by volume) as the mobile phase under a flow rate of 1.2 mL/min. The column was equilibrated with mobile phase for at least 30 min before initiating any sample injection.
The DDS was incubated in a vial of either 40 or 20 mL, and 10 mL sample solution was replaced by same volume of fresh medium, respectively, at each sampling time. The release profiles in saline and PBS were obviously different. Less than 5% of TKI was released in saline during the first 70 days. In contrast, less than 5% of AGN 201634 was released at the first 3 weeks when DDS was incubated in PBS, the same as in saline, but more than 80% of AGN 201634 was released after 70 days. […] It seems that release medium plans an important role in the variation of release profile instead of incubation volume. Due to this slow and diverged release profile, the release profile of Formulation 2 was not performed since its formulation was based on the same polymer with a lower drug loading.
For F3, more than 50%, 45%, and 75% TKI was released at the first 3, 7, and 2 weeks, when DDS was incubated in a medium of pH 6.0 (with 0.1% CTAB), 7.4 (PBS) and 8.5 (with 0.5% SDS), respectively. […]

[5] = Stability of AGN 201634 standard solution in DI water/acetonitrile at 4° C.; type: physicochemical; details: DI water/acetonitrile (75%/25%) at 4° C.
Procedure: The stability of AGN 201634 standard solution in deionized water/acetonitrile (75%/25%) was examined at 4° C., and the results are summarized in the following table. The concentration of standard solution was from 0.0695 μg/mL to 8.693 μg/mL, and was analyzed on day 14, 21, and 35.
Stability of AGN 201634 standard solution of various concentrations in DI water/acetonitrile (75%/25%) at 4° C. (Table 9).

[6] = Stability of TKI in Formulations 3 and 4 in media of pH 6.0, 7.4 or 8.5; type: physicochemical
Procedure: To examine the stability of TKI in formulation, Formulations 3 and 4 were prepared to various concentration in a medium of pH 6.0, 7.4 or 8.5, respectively, and subjected to an incubation condition of either 7 days under ambient condition or 14 days at 4° C., and the results are summarized in the following table.

[7] = In vivo pharmacokinetics of AGN 202314 intravitreal PLGA implants; parameters: species or system rabbit
Procedure: Implants containing AGN 202314 were placed intravitreally or subconjunctivally in an eye. The implants released AGN 202314 in-vitro over a 14 day period (FIG. 3.). The intent of this study was to achieve an intravitreal in-vivo/in-vitro correlation with the intravitreal implants and assess the feasibility of periocular delivery.
Intravitreal Implants, PLGA (400 μg AGN 202314 dose, 1 mg total implant weight), were implanted by surgical incision into the mid vitreous of albino rabbits. At days 8, 15, 31 and 61 rabbits were sacrificed and the vitreous humor, lens, aqueous humor and plasma assayed for AGN 202314.

[8] = In vivo pharmacokinetics of AGN 202314 subconjunctival PLGA implants and PLA microspheres; details: rabbit; for concentration at 8 day: Day 8
Procedure: Subconjunctival implants, PLGA (1200 μg AGN 202314 dose; three implants) and PLA microspheres (300 μg AGN 202314) were implanted subconjunctivally. At days 8, 15, 31 and 61 rabbits were sacrificed and the vitreous humor, lens, aqueous humor and plasma assayed for AGN 202314.

[9] = Day 31, subconjunctival PLGA implants, 3 rods, total 1.2 mg AGN 202314
[10] = Day 61, subconjunctival PLGA implants, 3 rods, total 1.2 mg AGN 202314

Structure (SMILES): O=C1Nc2ccccc2C1=CNc1ccc(N2CCOCC2)cc1 [AGN 199659, 3-[(4-Morpholin-4-yl-phenylamino)-methylene]-1,3-dihydro-indol-2-one]
- Vd (in vivo): 0.000255 L
- clearance (in vivo): 0.00387 mL/min
- half-life (in vivo): 1.21 h

Structure (SMILES): CCN(CC)CCOc1ccc(NC=C2C(=O)Nc3cc(F)ccc32)cc1 [AGN 202314]
- period of in-vitro delivery from formulations ([1]; 1 mg Purac PLA implants): four
- period of drug release in vitro ([1]; AGN 202314 implant): two
- period of in-vitro release from implants [1]: 14 days
- plasma levels ([7]; all time points (days 8, 15, 31, 61), implants in rabbit eye): BLQ or extremely low
- period of drug release in vivo ([7]; intravitreal PLGA implant, albino rabbit): two
- Retina AGN 202314 concentration ([8]; Day 15, subconjunctival PLGA implants, 3 rods, total 1.2 mg AGN 202314): BLQ (BLQ: Retina and lens: <5 ng/g)
- Lens AGN 202314 concentration [8, 9]: BLQ (BLQ: Retina and lens: <5 ng/g)
- Retina AGN 202314 concentration [8, 9]: BLQ (BLQ: Retina and lens: <5 ng/g)
- Lens AGN 202314 concentration [8, 10]: BLQ (BLQ: Retina and lens: <5 ng/g)
- Retina AGN 202314 concentration [8, 10]: BLQ (BLQ: Retina and lens: <5 ng/g)
- concentration at 8 day ([8]; aqueous humor, other: subconjunctival implant, subconjunctival PLGA implants, 3 rods, total 1.2 mg AGN 202314, read-out: Aqueous Humor AGN 202314 concentration): 6.38 ng/mL
- concentration at 8 day ([8]; lens, other: subconjunctival implant, subconjunctival PLGA implants, 3 rods, total 1.2 mg AGN 202314, read-out: Lens AGN 202314 concentration): 229 ng/g
- concentration at 15 day ([8]; lens, other: subconjunctival implant, Day 15, subconjunctival PLGA implants, 3 rods, total 1.2 mg AGN 202314): 7.93 ng/g
- concentration at 8 day ([8]; retina, other: subconjunctival implant, subconjunctival PLGA implants, 3 rods, total 1.2 mg AGN 202314, read-out: Retina AGN 202314 concentration): 63.8 ng/g
- periocular delivery to the vitreous and retina ([8]; subconjunctival implants and microspheres): unsuccessful
- pKa [2]: 9.68
- logP [2]: 3.8
- solubility [2]: 202 µg/mL (≈ 547 µM)

Structure (SMILES): Cc1cccc2c1C(=CNc1ccc(CCN3CCCCC3)cc1)C(=O)N2 [AGN 202560]
- pKa [2]: 9.65
- logP [2]: 3.66
- solubility [2]: 41 µg/mL (≈ 113 µM)

Second part, the compound after the results:

- period of in-vitro release from implants [1]: 180 days
- logP [2]: 2.21
- solubility [2]: 0.3 µg/mL (≈ 1 µM)
- clearance (in vivo): 0.00433 mL/min
- Vd [3]: 0.000705 L
- half-life [3]: 2.59 h
Structure (SMILES): Nc1ccc2c(c1)C(=C1C(=O)Nc3ccc(Cl)cc31)OC2 [AGN 200954, 3-(6-Amino-3H-isobenzofuran-1-ylidene)-5-chloro-1,3-dihydro-indol-2-one]

- duration of controlled release in vitro ([4]; medium of pH 6.0): more than 5 months
- duration of controlled release in vitro ([4]; medium of pH 7.4): more than 5 months
- duration of controlled release in vitro ([4]; medium of pH 8.5): more than 4 weeks
- stability of solution [5]: more than 35 days
- stability of DDS solution in various pH medium ([6]; 4° C.): > 14 days
- stability of DDS solution in various pH medium ([6]; ambient condition): more than 7 days
- logP [2]: 1.25
- solubility [2]: 88 µg/mL (≈ 271 µM)
Structure (SMILES): O=C(O)CC1O/C(=C2/C(=O)Nc3cc(F)ccc32)c2ccccc21 (centres unmarked) [AGN 201634]
